The supplement of paper PMC10307832

Experiments:
Assay in all cases: relative viability (nuclei count vs DMSO), 5 days (fraction); higher = more cells survive
[1] = compound: C1=CC=C2C(=C1)N=C(S2)C(C#N)C3=NC(=NC=C3)NCCC4=CN=CC=C4 + CCNC(=O)c1noc(-c2cc(C(C)C)c(O)cc2O)c1-c1ccc(CN2CCOCC2)cc1 [Luminespib] (partner 0.01 µM)
How it was run: (§1)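 Values are medians from duplicate plates. Each reflects relative viability, defined as the nuclei count of treated wells over that of vehicle wells. Lung cancer cell lines in 1536-well plates were pin-tool dosed one day after seeding with one drug alone or with a fixed anchor-drug dose plus five library-drug doses (not always all listed) in √10 steps, then fixed, stained and imaged at 4× after 5 days.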

[2] = compound: C1=CC=C2C(=C1)N=C(S2)C(C#N)C3=NC(=NC=C3)NCCC4=CN=CC=C4 + COc1cc2c(Oc3ccc(NC(=O)C4(C(=O)Nc5ccc(F)cc5)CC4)cc3F)ccnc2cc1OCCCN1CCOCC1 [Foretinib] (partner 0.25 µM)
How it was run: as §1

Vandetanib + Lapatinib = compound: COc1cc2/c(=N/c3ccc(Br)cc3F)nc[nH]c2cc1OCC1CCN(C)CC1 [Vandetanib] + CS(=O)(=O)CCNCc1ccc(-c2ccc3ncnc(Nc4ccc(OCc5cccc(F)c5)c(Cl)c4)c3c2)o1 [Lapatinib] (partner 2 µM)
How it was run: as §1

Vandetanib + Tozasertib = compound: COc1cc2/c(=N/c3ccc(Br)cc3F)nc[nH]c2cc1OCC1CCN(C)CC1 [Vandetanib] + Cc1cc(Nc2cc(N3CCN(C)CC3)nc(Sc3ccc(NC(=O)C4CC4)cc3)n2)n[nH]1 [Tozasertib] (partner 0.1 µM)
How it was run: as §1

Cell Line	relative viability ([1]; first compound 0.005 µM)	relative viability ([1]; first compound 0.01581 µM)	relative viability ([1]; first compound 0.05 µM)	relative viability ([1]; first compound 0.1581 µM)	relative viability ([1]; first compound 0.5 µM)	relative viability ([2]; first compound 0.005 µM)	relative viability ([2]; first compound 0.01581 µM)	relative viability ([2]; first compound 0.05 µM)	relative viability ([2]; first compound 0.1581 µM)	relative viability ([2]; first compound 0.5 µM)	relative viability (Vandetanib + Lapatinib; first compound 0.02 µM)	relative viability (Vandetanib + Lapatinib; first compound 0.06325 µM)	relative viability (Vandetanib + Lapatinib; first compound 0.2 µM)	relative viability (Vandetanib + Lapatinib; first compound 0.6325 µM)	relative viability (Vandetanib + Lapatinib; first compound 2 µM)	relative viability (Vandetanib + Tozasertib; first compound 0.02 µM)	relative viability (Vandetanib + Tozasertib; first compound 0.06325 µM)	relative viability (Vandetanib + Tozasertib; first compound 0.2 µM)	relative viability (Vandetanib + Tozasertib; first compound 0.6325 µM)	relative viability (Vandetanib + Tozasertib; first compound 2 µM)
PC-3 [JPC-3]	0.681	0.71	0.693	0.724	0.561	0.984	1.12	1.07	1.14	0.961	0.442	0.482	0.49	0.458	0.41	0.851	0.831	0.938	0.776	0.491
IA-LM	–	–	–	–	–	0.691	1.21	1.17	1.24	0.916	0.762	0.737	0.953	0.798	0.987	–	–	–	–	–
NCI-H520	0.237	0.201	0.214	0.224	0.198	0.718	0.983	0.853	0.878	0.842	0.679	0.807	0.918	0.936	0.831	0.437	0.414	0.482	0.432	0.501
A549	–	–	–	–	–	–	1.03	0.971	1.05	0.728	1.05	0.935	0.905	1.01	0.946	–	–	–	–	–
BEN	0.081	0.337	0.254	0.688	0.342	0.658	0.557	0.684	0.847	0.858	0.75	0.686	0.677	0.742	0.812	0.582	0.464	0.521	0.462	0.452
COR-L 105	0.782	0.848	0.85	0.826	0.657	0.802	1.12	0.963	1.26	0.878	0.322	0.307	0.325	0.366	0.356	0.331	0.355	0.223	0.317	0.286
NCI-H1734	–	0.253	0.184	0.185	0.188	–	0.8	0.913	0.993	0.758	0.951	1.02	1.11	1.04	0.991	0.24	0.289	0.14	0.216	0.261
LOU-NH91	0.274	0.34	0.336	0.333	0.43	0.942	0.884	0.863	0.9	0.925	0.739	0.761	0.783	0.764	0.799	0.735	0.635	0.61	0.543	0.526
NCI-H2405	0.708	0.638	0.654	0.655	0.809	1.02	1.04	1.04	1.07	1	1.1	0.842	1.25	1.14	0.316	0.754	0.716	0.738	0.685	0.714
HCC-15	0.478	0.255	0.237	0.354	0.27	0.853	1.07	0.984	1.2	1.01	0.824	0.772	0.798	0.878	0.937	0.555	0.416	0.07	0.35	0.347
HCC-44	0.988	–	1.03	1.05	0.951	–	–	–	–	–	0.917	1	1.06	0.968	0.996	0.924	0.851	1.01	1.05	0.949
NCI-H1792	–	0.462	0.453	0.255	0.6	–	–	–	–	–	0.886	0.824	0.869	0.874	0.862	–	–	–	–	–
NCI-H2347	0.811	0.355	0.381	0.488	0.363	1.1	0.821	–	0.662	1.17	0.972	0.701	0.913	0.964	0.89	0.607	–	0.553	0.563	0.674
SW 900	0.164	0.205	0.175	0.197	0.179	0.63	0.714	0.704	1.02	0.985	–	–	–	–	–	0.688	0.417	0.142	0.634	0.609
RERF-LC-KJ	0.935	0.982	1.4	1.18	1.06	0.966	0.826	0.86	0.882	0.762	0.848	0.839	0.827	0.843	0.878	0.549	0.515	0.491	0.439	0.477
NCI-H522	1.07	1.05	1.12	1.15	1.12	–	–	–	–	–	–	–	–	–	–	0.588	0.57	0.593	0.621	0.597
NCI-H1666	0.856	0.965	0.986	1.1	0.833	0.897	0.951	0.971	0.981	0.838	0.59	0.658	0.444	0.739	0.629	0.606	0.581	0.387	0.577	0.633
LC-2-ad	0.807	1.06	0.965	1.17	0.91	0.858	0.994	0.883	0.921	0.828	0.896	0.949	0.506	0.783	0.711	0.471	0.462	0.467	0.45	0.357
NCI-H2023	0.994	1	0.901	1.03	0.765	0.708	0.933	0.857	1.09	0.907	0.814	0.694	0.763	0.943	0.854	0.436	0.31	0.217	0.298	0.337
SK-LU-1	0.185	0.194	0.187	0.223	0.197	0.749	0.824	0.867	0.991	0.884	0.859	0.676	0.992	0.832	0.816	0.36	0.361	0.133	0.292	0.317

Cell Line	relative viability ([1]; first compound 0.005 µM)	relative viability ([1]; first compound 0.01581 µM)	relative viability ([1]; first compound 0.05 µM)	relative viability ([1]; first compound 0.1581 µM)	relative viability ([1]; first compound 0.5 µM)	relative viability ([2]; first compound 0.005 µM)	relative viability ([2]; first compound 0.01581 µM)	relative viability ([2]; first compound 0.05 µM)	relative viability ([2]; first compound 0.1581 µM)	relative viability ([2]; first compound 0.5 µM)	relative viability (Vandetanib + Lapatinib; first compound 0.02 µM)	relative viability (Vandetanib + Lapatinib; first compound 0.06325 µM)	relative viability (Vandetanib + Lapatinib; first compound 0.2 µM)	relative viability (Vandetanib + Lapatinib; first compound 0.6325 µM)	relative viability (Vandetanib + Lapatinib; first compound 2 µM)	relative viability (Vandetanib + Tozasertib; first compound 0.02 µM)	relative viability (Vandetanib + Tozasertib; first compound 0.06325 µM)	relative viability (Vandetanib + Tozasertib; first compound 0.2 µM)	relative viability (Vandetanib + Tozasertib; first compound 0.6325 µM)	relative viability (Vandetanib + Tozasertib; first compound 2 µM)
LCLC-97TM1	0.748	0.896	0.795	0.947	0.685	0.942	0.96	0.899	0.956	0.983	0.864	1.05	0.909	0.841	0.8	0.219	0.225	0.346	0.24	0.251
NCI-H1915	0.464	0.933	0.826	0.876	0.601	1.08	1.11	1.1	1.3	1.05	0.905	0.972	1.05	0.93	0.928	0.424	0.422	0.438	0.419	0.412
NCI-H358	0.248	0.465	0.296	0.475	0.185	0.635	0.677	0.776	0.772	0.642	0.38	0.397	0.445	0.419	0.434	0.111	0.106	0.104	0.0913	0.102
LK-2	0.206	0.181	0.209	0.176	0.194	1.21	1.21	1.29	1.06	1.64	0.999	0.964	0.716	1.05	0.636	0.18	0.165	0.195	0.182	0.172
EPLC-272H	0.248	0.229	0.169	0.392	0.302	0.588	0.586	0.673	1	0.585	1.05	0.791	0.933	1.02	0.168	0.25	–	0.285	0.282	0.306
A-427	0.784	1	0.861	1.18	0.965	1.22	1.21	0.946	1.22	1.32	0.968	1.02	1.14	1.01	0.74	0.215	0.248	0.219	0.155	0.223
NCI-H1563	0.534	0.52	0.507	0.553	0.552	0.85	0.922	1.03	0.952	0.914	0.957	0.882	1.39	0.953	1.03	–	–	–	–	–
LCLC-103H	0.773	0.854	0.905	0.944	0.96	0.801	0.8	0.894	0.828	0.737	–	–	–	–	–	0.613	0.443	0.548	0.481	0.555
NCI-H1623	0.932	0.466	0.508	0.322	0.346	0.9	0.858	0.769	0.888	0.819	–	–	–	–	–	0.431	0.4	0.388	0.41	0.445
NCI-H2342	0.555	0.708	0.794	0.776	0.841	0.926	1.17	0.997	1.04	1.17	–	–	–	–	–	0.592	0.552	0.463	0.461	0.493
HCC-78	–	–	–	–	–	0.473	0.526	0.523	0.559	0.504	1.03	0.739	0.915	0.913	0.738	0.502	0.451	0.41	0.548	0.404
EBC-1	–	–	–	–	–	0.123	0.103	0.0991	0.112	0.0984	0.212	0.204	0.19	0.211	0.183	–	–	–	–	–
NCI-H441	–	0.308	0.351	0.365	0.301	–	0.902	0.913	1.1	0.908	–	–	–	–	–	0.744	0.668	0.283	0.853	0.768
ChaGo-K-1	–	0.678	0.594	0.693	0.67	–	0.954	0.838	1.06	0.932	–	–	–	–	–	0.2	0.239	0.248	0.212	0.215
HCC-366	–	–	–	–	–	0.832	0.839	0.872	0.915	0.923	0.931	0.978	1.18	1.18	1.09	0.125	0.112	0.0453	0.174	0.0919
NCI-H1299	–	–	–	–	–	1.1	1.1	1.05	1.09	1.09	0.965	0.95	0.892	0.968	0.948	–	–	–	–	–
Calu-6	–	–	–	–	–	0.875	0.873	0.817	0.884	0.822	1.08	0.966	1.12	0.94	1.07	–	–	–	–	–
NCI-H1703	–	–	–	–	–	0.391	0.37	0.381	0.318	0.336	1.13	–	1.24	0.932	0.417	–	–	–	–	–
NCI-H1648	–	–	–	–	–	–	–	–	–	–	–	–	–	–	–	0.515	0.492	0.569	0.657	0.318
